Like-named read-outs stand apart in the source and are kept apart here.
Test system: DENV-2 RL
Experiment: microbe, parasite or virus in culture
Assay type: cell-based
Details: Dengue virus, DENV2, Vero

Measured: EC50

COc1cc(N[C@H](C(=O)c2c[nH]c3ccc(OC(F)(F)F)cc23)c2ccc(Cl)cc2OC)cc(S(C)(=O)=O)c1 [JNJ-1802]
31.3 ng/mL: read-out: EC50 values [Well 1], B sample, passage 31 | read-out: EC50 values [Well 1], B sample, passage 32 | read-out: EC50 values [Well 2], B sample, passage 33 | read-out: EC50 values [Well 2], B sample, passage 34 | read-out: EC50 values [Well 2], B sample, passage 35 | read-out: EC50 values [Well 2], B sample, passage 36 | read-out: EC50 values [Well 2], B sample, passage 37 | read-out: EC50 values [Well 2], B sample, passage 38
0.049 ng/mL: read-out: EC50 values [Well 1], B sample, passage 1 | read-out: EC50 values [Well 1], B sample, passage 2 | read-out: EC50 values [Well 1], B sample, passage 3 | read-out: EC50 values [Well 1], B sample, passage 4 | read-out: EC50 values [Well 1], B sample, passage 5 | read-out: EC50 values [Well 2], A sample, passage 6 | read-out: EC50 values [Well 2], A sample, passage 9 | read-out: EC50 values [Well 2], B sample, passage 6 | read-out: EC50 values [Well 2], B sample, passage 7 | read-out: EC50 values [Well 2], B sample, passage 8 | read-out: EC50 values [Well 2], B sample, passage 9 | read-out: EC50 values [Well 2], B sample, passage 10 | read-out: EC50 values [Well 2], B sample, passage 14 | read-out: EC50 values [Well 2], B sample, passage 15
400 ng/mL: read-out: EC50 values [Well 1], A sample, passage 37 | read-out: EC50 values [Well 1], A sample, passage 38
62.5 ng/mL: read-out: EC50 values [Well 1], B sample, passage 33 | read-out: EC50 values [Well 1], B sample, passage 34 | read-out: EC50 values [Well 1], B sample, passage 35 | read-out: EC50 values [Well 1], B sample, passage 36 | read-out: EC50 values [Well 1], B sample, passage 37 | read-out: EC50 values [Well 1], B sample, passage 38 | read-out: EC50 values [Well 2], B sample, passage 39
1000 ng/mL: read-out: EC50 values [Well 1], A sample, passage 39 | read-out: EC50 values [Well 1], A sample, passage 40 | read-out: EC50 values [Well 1], A sample, passage 41 | read-out: EC50 values [Well 1], A sample, passage 42 (END) | read-out: EC50 values [Well 1], B sample, passage 48 | read-out: EC50 values [Well 1], B sample, passage 49 | read-out: EC50 values [Well 1], B sample, passage 50 (END)
12.5 ng/mL: read-out: EC50 values [Well 2], A sample, passage 20 | read-out: EC50 values [Well 2], A sample, passage 21 | read-out: EC50 values [Well 2], A sample, passage 22 | read-out: EC50 values [Well 2], A sample, passage 23 | read-out: EC50 values [Well 2], B sample, passage 29
50 ng/mL: read-out: EC50 values [Well 2], A sample, passage 26 | read-out: EC50 values [Well 2], A sample, passage 31 | read-out: EC50 values [Well 2], A sample, passage 32
250 ng/mL: read-out: EC50 values [Well 1], B sample, passage 40 | read-out: EC50 values [Well 2], B sample, passage 41 | read-out: EC50 values [Well 2], B sample, passage 42 | read-out: EC50 values [Well 2], B sample, passage 43 | read-out: EC50 values [Well 2], B sample, passage 44 | read-out: EC50 values [Well 2], B sample, passage 45 | read-out: EC50 values [Well 2], B sample, passage 46 | read-out: EC50 values [Well 2], B sample, passage 47
100 ng/mL: read-out: EC50 values [Well 1], A sample, passage 32 | read-out: EC50 values [Well 2], A sample, passage 27 | read-out: EC50 values [Well 2], A sample, passage 28 | read-out: EC50 values [Well 2], A sample, passage 29 | read-out: EC50 values [Well 2], A sample, passage 30 | read-out: EC50 values [Well 2], A sample, passage 33 | read-out: EC50 values [Well 2], A sample, passage 34 | read-out: EC50 values [Well 2], A sample, passage 35 | read-out: EC50 values [Well 2], A sample, passage 36
0.391 ng/mL: read-out: EC50 values [Well 1], B sample, passage 13 | read-out: EC50 values [Well 1], B sample, passage 19 | read-out: EC50 values [Well 1], B sample, passage 20 | read-out: EC50 values [Well 1], B sample, passage 21 | read-out: EC50 values [Well 1], B sample, passage 22 | read-out: EC50 values [Well 2], A sample, passage 14 | read-out: EC50 values [Well 2], A sample, passage 15 | read-out: EC50 values [Well 2], B sample, passage 23
15.6 ng/mL: read-out: EC50 values [Well 2], B sample, passage 31 | read-out: EC50 values [Well 2], B sample, passage 32
0.195 ng/mL: read-out: EC50 values [Well 1], B sample, passage 11 | read-out: EC50 values [Well 1], B sample, passage 12 | read-out: EC50 values [Well 1], B sample, passage 16 | read-out: EC50 values [Well 1], B sample, passage 17 | read-out: EC50 values [Well 1], B sample, passage 18 | read-out: EC50 values [Well 2], A sample, passage 13 | read-out: EC50 values [Well 2], B sample, passage 13 | read-out: EC50 values [Well 2], B sample, passage 19 | read-out: EC50 values [Well 2], B sample, passage 20 | read-out: EC50 values [Well 2], B sample, passage 21 | read-out: EC50 values [Well 2], B sample, passage 22
3.13 ng/mL: read-out: EC50 values [Well 1], B sample, passage 25 | read-out: EC50 values [Well 2], A sample, passage 18 | read-out: EC50 values [Well 2], B sample, passage 26 | read-out: EC50 values [Well 2], B sample, passage 27 | read-out: EC50 values [Well 2], B sample, passage 28
1.56 ng/mL: read-out: EC50 values [Well 1], B sample, passage 24 | read-out: EC50 values [Well 2], A sample, passage 17 | read-out: EC50 values [Well 2], B sample, passage 25
0.024 ng/mL: read-out: EC50 values [Well 2], A sample, passage 1 | read-out: EC50 values [Well 2], A sample, passage 2 | read-out: EC50 values [Well 2], A sample, passage 3 | read-out: EC50 values [Well 2], A sample, passage 4 | read-out: EC50 values [Well 2], A sample, passage 5 | read-out: EC50 values [Well 2], A sample, passage 7 | read-out: EC50 values [Well 2], A sample, passage 8 | read-out: EC50 values [Well 2], B sample, passage 1 | read-out: EC50 values [Well 2], B sample, passage 2 | read-out: EC50 values [Well 2], B sample, passage 3 | read-out: EC50 values [Well 2], B sample, passage 4 | read-out: EC50 values [Well 2], B sample, passage 5
25 ng/mL: read-out: EC50 values [Well 1], B sample, passage 29 | read-out: EC50 values [Well 1], B sample, passage 30 | read-out: EC50 values [Well 2], A sample, passage 24 | read-out: EC50 values [Well 2], A sample, passage 25
125 ng/mL: read-out: EC50 values [Well 1], B sample, passage 39 | read-out: EC50 values [Well 2], B sample, passage 40
500 ng/mL: read-out: EC50 values [Well 1], B sample, passage 41 | read-out: EC50 values [Well 1], B sample, passage 42 | read-out: EC50 values [Well 1], B sample, passage 43 | read-out: EC50 values [Well 1], B sample, passage 44 | read-out: EC50 values [Well 1], B sample, passage 45 | read-out: EC50 values [Well 1], B sample, passage 46 | read-out: EC50 values [Well 1], B sample, passage 47 | read-out: EC50 values [Well 2], A sample, passage 39 | read-out: EC50 values [Well 2], A sample, passage 40 | read-out: EC50 values [Well 2], A sample, passage 41 | read-out: EC50 values [Well 2], A sample, passage 42 (END) | read-out: EC50 values [Well 2], B sample, passage 48 | read-out: EC50 values [Well 2], B sample, passage 49 | read-out: EC50 values [Well 2], B sample, passage 50 (END)
200 ng/mL: read-out: EC50 values [Well 1], A sample, passage 33 | read-out: EC50 values [Well 1], A sample, passage 34 | read-out: EC50 values [Well 1], A sample, passage 35 | read-out: EC50 values [Well 1], A sample, passage 36 | read-out: EC50 values [Well 2], A sample, passage 37 | read-out: EC50 values [Well 2], A sample, passage 38
6.25 ng/mL: read-out: EC50 values [Well 1], B sample, passage 26 | read-out: EC50 values [Well 1], B sample, passage 27 | read-out: EC50 values [Well 1], B sample, passage 28

— paper PMC10033419, “Blocking NS3–NS4B interaction inhibits dengue virus in non-human primates” (Nature, 2023)
